Legend:
MARC-145 cells = assay: Virus titration of treated PRRSV on MARC-145 cells (inactivation curve); type: cell-based; conditions: four hours at 37° C.
Experimental: Formaldehyde was then removed by ultracentrifugation. Inactivation with glutaraldehyde was performed with purified virus (10^7 TCID50/ml) that was incubated for four hours at 37° C. with different concentrations (0-0.005-0.05-0.5-5 or 50 ng/ml) glutaraldehyde (Sigma) (Darnell et al., 2004). Glutaraldehyde was removed by ultracentrifugation afterwards. For inactivation with 2,2-dithiodipyridine (AT-2), purified virus (10^7 TCID50/ml) was incubated for four hours at 37° C. with different concentrations (0-10-30-100-300 or 1000 μM) AT-2 (Aldrich) (Rossio et al., 1998; Chertova et al., 2003). Afterwards, AT-2 was removed by ultracentrifugation. For inactivation by changing the pH, the pH was adjusted with HCl of 32% to pH2 and with NaOH to pH12. Purified virus (10^7 TCID50/ml) was incubated for several hours at a pH2 or at a pH12. After incubation, the pH was neutralized (Darnell et al., 2004). For inactivation of PRRSV at a certain temperature, purified virus (10^7 TCID50/ml) was incubated for several (0-6-12-24-48 or 72) hours at 37° C. […]
Virus titration was performed in a 96-well plate with a confluent monolayer of MARC-145 cells. […] After three to five days incubation at 37° C., the occurrence of cytopathic effect (CPE) was investigated and the 50% tissue culture infective dose (TCID50) could be calculated. […]

macrophages = assay: Attachment, internalization, fusion and replication of inactivated PRRSV in macrophages by immunostaining and confocal microscopy; type: cell-based, porcine; conditions: 1 hpi
Description: The European strain Lelystad virus (LV) of PRRSV (Wensvoort et al., 1991) grown on MARC-145 cells (5th passage) was used for inactivation. MARC-145 cells cultivated in minimum Eagle's medium (MEM) with 5% FCS, 1% glutamine, 1% penicillin-streptomycin and 1% kanamycin were used for LV production and titration of inactivated virus. Attachment and internalization of the inactivated virus was investigated in macrophages that where cultivated in medium containing RPMI 1640, 10% FCS, 1% penicillin-streptomycin, 1% kanamycin, 1% gentamycin, 1% tylosin, 1% glutamine, 1% nonessential amino acids and 1% sodium pyruvate for 24 hours before inoculation. When CHO cells were used, the cells were cultivated in F12 with 10% FCS, 1% penicillin-streptomycin, 1% kanamycin, 1% glutamine, and 1% sodium pyruvate and were transfected with sialoadhesin. As the macrophages, the CHO cells were also cultivated 24 hours before inoculation. […]
Macrophages, CHO^Sn or CHO^Sn-CD163 cells were seeded at 200,000 cells/ml in a 24-well plate with insert. […] The virus particles were counted with a confocal microscope.

[1] = tested on: CHO^Sn-CD163 cell line ID9; assay: Binding, internalization, fusion and infection in CHO^Sn-CD163 cell line ID9; type: cell-based, Chinese Hamster
Experimental: (§1) Macrophages or CHO cells (including CHO^Sn and CHO^Sn-CD163 cells, i.e., the CHO cells expressing sialoadhesin and CD163 deposited on May 14, 2008 at the Belgian Coordinated Collections of Microorganisms as CHO^Sn/CD163 IC5; CHO^Sn/CD163 ID9 and CHO^Sn/CD163 IF3 with the respective accession numbers (LMBP 6677CB, LMBP 6678CB, and […]) were incubated for one hour at 37° C. with the treated PRRSV and fixed with methanol. Then the capsid protein was stained with a primary antibody P3/27 and a secondary antibody goat-anti-mouse FITC. Confocal analysis was performed to determine the amount of internalized PRRSV.
(§2) Macrophages, CHO^Sn or CHO^Sn-CD163 cells were seeded at 200,000 cells/ml in a 24-well plate with insert. After two days, the cells were inoculated with wild-type Lelystad Virus (LV) grown on MARC-145 cells and inactivated LV grown on MARC-145 cells. The cells were fixed with methanol after one hour at 4° C. (binding; 0 hpi), one hour at 37° C. (internalization), five hours at 37° C. […] (infection) and 24 hours at 37° C. (infection). The virus was stained with a primary antibody P3/27 (anti-capsid) and a secondary antibody goat-anti-mouse FITC. The virus particles were counted with a confocal microscope.

[2] = tested on: CHO^Sn-CD163 cell line IF3; assay: Binding, internalization, fusion and infection in CHO^Sn-CD163 cell line IF3; type: cell-based, Chinese Hamster
Experimental: as §1, §2

[3] = tested on: CHO^Sn-CD163 cell line IC5; assay: Binding, internalization, fusion and infection in CHO^Sn-CD163 cell line IC5; type: cell-based, Chinese Hamster
Experimental: as §1, §2

Row | Compound | infectious virus detected by titration (MARC-145 cells; lowest concentration of 10 pg/ml formaldehyde) | internalization in macrophages (macrophages; 0.1 ng/ml formaldehyde) | Binding (particles counted at 0 hpi) [1] [particles] | Fusion (particles counted at 5 hpi) [1] [particles] | Infection 12 hpi (%) [1] [%] | Infection 24 hpi (%) [1] [%] | Internalization (particles counted at 1 hpi) [1] [particles] | Binding (particles counted at 0 hpi) [2] [particles] | Fusion (particles counted at 5 hpi) [2] [particles] | Infection 12 hpi (%) [2] [%] | Infection 24 hpi (%) [2] [%] | Internalization (particles counted at 1 hpi) [2] [particles] | Binding (particles counted at 0 hpi) [3] [particles] | Fusion (particles counted at 5 hpi) [3] [particles] | Infection 12 hpi (%) [3] [%] | Infection 24 hpi (%) [3] [%] | Internalization (particles counted at 1 hpi) [3] [particles] | infectious virus detected by titration (MARC-145 cells; 0.5 ng/ml glutaraldehyde or more) | internalization in macrophages (macrophages; 50 ng/ml glutaraldehyde)
1 | C=O [formaldehyde] | no infectious virus detected | no longer able to internalize | 2 | 0 | 0 | 0 | 0 | 1 | 1 | 0 | 0 | 0 | 0 | 0 | 0 | 0 | 0 |  | 
2 | O=CCCCC=O [glutaraldehyde] |  |  | 0 | 0 | 0 | 0 | 0 | 2 | 1 | 0 | 0 | 0 | 1 | 0 | 0 | 0 | 0 | no infectious virus could be detected | no longer able to internalize

Reference: US9545438B2, “Determination of antigenicity of an inactivated virus” (Universiteit Gent, priority 2008, dated 2017)
